Assay results taken from US8835462B2, “Macrocyclic picolinamides as fungicides” (Dow AgroSciences LLC, priority 2012, dated 2014).

What follows are compounds tested on Puccinia triticina (assay: Fungicide mobility (dropline mobility test), wheat brown rust (PUCCRT)). Conditions: 1 ug/leaf; 1 Day Protectant Mobility; disease-free zone as percent of distance from marked line to leaf tip.
Assay type: in vivo
Method in brief: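 Yuma wheat primary leaves, held horizontal, got a 2 μl drop of EC-formulated compound in water with 110 ppm Triton X-100 on a line 5 cm from the tip; 6 replicates. Inoculation 1 day after or 3 days before application. Acropetal disease-free zone measured as percent of line-to-tip distance once control rust fully expressed.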
With `COc1ccnc(C(=O)N[C@H]2COC[C@H](Cc3ccccc3)[C@@H](OC)[C@H](C)OC2=O)c1OCOC(C)=O` [Compound 39] the “Dropline Mobility Test PUCCRT 1 DPM” value was “A (80-100)”.
With `COc1ccnc(C(=O)N[C@H]2COC[C@H](Cc3ccccc3)[C@@H](OCCC(C)OC)[C@H](C)OC2=O)c1OCOC(C)=O` (some centres unmarked) [Compound 46] the “Dropline Mobility Test PUCCRT 1 DPM” value was “A (80-100)”.
With `CCCO[C@@H]1[C@@H](Cc2ccccc2)COC[C@H](NC(=O)c2nccc(OC)c2OCOC(C)=O)C(=O)O[C@H]1C` [Compound 22] the “Dropline Mobility Test PUCCRT 1 DPM” value was “B (More than 0-Less than 80)”.
With `CCCCCO[C@@H]1[C@@H](Cc2ccccc2)COC[C@H](NC(=O)c2nccc(OC)c2OCOC(C)=O)C(=O)O[C@H]1C` [Compound 26] the “Dropline Mobility Test PUCCRT 1 DPM” value was “B (More than 0-Less than 80)”.
In the case of `COc1ccnc(C(=O)N[C@H]2COC[C@H](Cc3ccccc3)[C@@H](OC(=O)c3ccccc3)[C@H](C)OC2=O)c1OCOC(C)=O` [Compound 37], the “Dropline Mobility Test PUCCRT 1 DPM” value is reported as “B (More than 0-Less than 80)”.
`COc1ccnc(C(=O)N[C@H]2COC[C@H](Cc3ccccc3)[C@@H](OCCCC(F)(F)F)[C@H](C)OC2=O)c1OCOC(C)=O` [Compound 23] was tested, and the “Dropline Mobility Test PUCCRT 1 DPM” value was “B (More than 0-Less than 80)”.
`COc1ccnc(C(=O)N[C@H]2COC[C@H](Cc3ccccc3)[C@@H](OC(=O)C3CC3)[C@H](C)OC2=O)c1OCOC(C)=O` [Compound 38] was tested, and the “Dropline Mobility Test PUCCRT 1 DPM” value was “B (More than 0-Less than 80)”.
`COc1ccnc(C(=O)N[C@H]2COC[C@H](Cc3ccccc3)[C@@H](Oc3ccccc3)[C@H](C)OC2=O)c1OCOC(C)=O` [Compound 40] was tested, and the “Dropline Mobility Test PUCCRT 1 DPM” value was “B (More than 0-Less than 80)”.
`COC(=O)/C=C/O[C@@H]1[C@@H](Cc2ccccc2)COC[C@H](NC(=O)c2nccc(OC)c2OCOC(C)=O)C(=O)O[C@H]1C` [Compound 36] was tested, and the “Dropline Mobility Test PUCCRT 1 DPM” value was “B (More than 0-Less than 80)”.
In the case of `COc1ccnc(C(=O)N[C@H]2COC[C@H](Cc3ccccc3)[C@@H](OCCCc3ccccc3)[C@H](C)OC2=O)c1OCOC(C)=O` [Compound 34], the “Dropline Mobility Test PUCCRT 1 DPM” value is reported as “B (More than 0-Less than 80)”.
`COc1ccnc(C(=O)N[C@H]2COC[C@H](Cc3ccccc3)[C@@H](OCC(F)F)[C@H](C)OC2=O)c1OCOC(C)=O` [Compound 44] was tested, and the “Dropline Mobility Test PUCCRT 1 DPM” value was “B (More than 0-Less than 80)”.

Same assay, conditions: 1 ug/leaf; 3 Day Curative Mobility; disease-free zone as percent of distance from marked line to leaf tip
For `COc1ccnc(C(=O)N[C@H]2COC[C@H](Cc3ccccc3)[C@@H](OC)[C@H](C)OC2=O)c1OCOC(C)=O` [Compound 39], the “Dropline Mobility Test PUCCRT 3 DCM” value was “A (80-100)”.
`COc1ccnc(C(=O)N[C@H]2COC[C@H](Cc3ccccc3)[C@@H](OCCC(C)OC)[C@H](C)OC2=O)c1OCOC(C)=O` (some centres unmarked) [Compound 46] was tested, and the “Dropline Mobility Test PUCCRT 3 DCM” value was “A (80-100)”.
For `CCCO[C@@H]1[C@@H](Cc2ccccc2)COC[C@H](NC(=O)c2nccc(OC)c2OCOC(C)=O)C(=O)O[C@H]1C` [Compound 22], the “Dropline Mobility Test PUCCRT 3 DCM” value was “B (More than 0-Less than 80)”.
`CCCCCO[C@@H]1[C@@H](Cc2ccccc2)COC[C@H](NC(=O)c2nccc(OC)c2OCOC(C)=O)C(=O)O[C@H]1C` [Compound 26] was tested, and the “Dropline Mobility Test PUCCRT 3 DCM” value was “B (More than 0-Less than 80)”.
With `COc1ccnc(C(=O)N[C@H]2COC[C@H](Cc3ccccc3)[C@@H](OCCCC(F)(F)F)[C@H](C)OC2=O)c1OCOC(C)=O` [Compound 23] the “Dropline Mobility Test PUCCRT 3 DCM” value was “B (More than 0-Less than 80)”.
With `COc1ccnc(C(=O)N[C@H]2COC[C@H](Cc3ccccc3)[C@@H](OC(=O)C3CC3)[C@H](C)OC2=O)c1OCOC(C)=O` [Compound 38] the “Dropline Mobility Test PUCCRT 3 DCM” value was “B (More than 0-Less than 80)”.
In the case of `COc1ccnc(C(=O)N[C@H]2COC[C@H](Cc3ccccc3)[C@@H](Oc3ccccc3)[C@H](C)OC2=O)c1OCOC(C)=O` [Compound 40], the “Dropline Mobility Test PUCCRT 3 DCM” value is reported as “B (More than 0-Less than 80)”.
For `COC(=O)/C=C/O[C@@H]1[C@@H](Cc2ccccc2)COC[C@H](NC(=O)c2nccc(OC)c2OCOC(C)=O)C(=O)O[C@H]1C` [Compound 36], the “Dropline Mobility Test PUCCRT 3 DCM” value was “B (More than 0-Less than 80)”.
For `COc1ccnc(C(=O)N[C@H]2COC[C@H](Cc3ccccc3)[C@@H](OCC(F)F)[C@H](C)OC2=O)c1OCOC(C)=O` [Compound 44], the “Dropline Mobility Test PUCCRT 3 DCM” value was “B (More than 0-Less than 80)”.
